Tests used:
JAK2 = molecular target: T1, JAK2 (Homo sapiens, UniProt O60674); assay: KINOMEscan bead-based competition Kd; also Z'LYTE kinase assay, […] inhibition at […]; assay type: binding
T1 construct: JH1 domain

JAK3 = molecular target: T2, JAK3 (Homo sapiens, UniProt P52333); assay: KINOMEscan bead-based competition Kd; assay type: binding
T2 sequence (P52333 1-1124): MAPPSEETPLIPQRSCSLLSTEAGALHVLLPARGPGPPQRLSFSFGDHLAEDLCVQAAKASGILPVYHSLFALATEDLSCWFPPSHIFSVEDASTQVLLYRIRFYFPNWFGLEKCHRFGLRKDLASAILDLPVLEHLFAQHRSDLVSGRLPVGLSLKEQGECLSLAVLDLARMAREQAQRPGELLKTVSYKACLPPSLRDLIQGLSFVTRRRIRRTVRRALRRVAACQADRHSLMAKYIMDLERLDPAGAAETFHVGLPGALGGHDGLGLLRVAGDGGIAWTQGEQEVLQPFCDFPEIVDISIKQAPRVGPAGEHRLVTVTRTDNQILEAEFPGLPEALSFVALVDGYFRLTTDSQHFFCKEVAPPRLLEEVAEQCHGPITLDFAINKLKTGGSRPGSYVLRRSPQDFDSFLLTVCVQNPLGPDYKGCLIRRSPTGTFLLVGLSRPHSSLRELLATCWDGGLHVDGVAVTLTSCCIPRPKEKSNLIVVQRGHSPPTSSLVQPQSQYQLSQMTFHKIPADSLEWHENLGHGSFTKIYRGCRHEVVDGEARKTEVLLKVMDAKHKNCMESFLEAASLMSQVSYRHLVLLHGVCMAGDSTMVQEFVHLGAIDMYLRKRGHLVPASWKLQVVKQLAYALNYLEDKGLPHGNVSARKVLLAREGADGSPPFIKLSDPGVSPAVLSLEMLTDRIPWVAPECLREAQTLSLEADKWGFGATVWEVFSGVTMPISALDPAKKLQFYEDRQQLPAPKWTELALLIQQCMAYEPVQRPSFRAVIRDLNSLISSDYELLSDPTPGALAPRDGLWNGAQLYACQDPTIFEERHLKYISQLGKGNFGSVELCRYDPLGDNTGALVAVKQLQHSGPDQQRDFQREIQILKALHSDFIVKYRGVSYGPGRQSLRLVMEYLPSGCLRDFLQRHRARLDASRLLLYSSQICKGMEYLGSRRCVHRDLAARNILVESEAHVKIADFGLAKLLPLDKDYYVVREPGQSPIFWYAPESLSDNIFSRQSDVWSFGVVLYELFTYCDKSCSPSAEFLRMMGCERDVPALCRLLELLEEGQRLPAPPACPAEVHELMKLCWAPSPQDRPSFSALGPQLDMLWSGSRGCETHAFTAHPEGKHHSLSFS

T1 sequence (O60674 840-1132 limits assumed): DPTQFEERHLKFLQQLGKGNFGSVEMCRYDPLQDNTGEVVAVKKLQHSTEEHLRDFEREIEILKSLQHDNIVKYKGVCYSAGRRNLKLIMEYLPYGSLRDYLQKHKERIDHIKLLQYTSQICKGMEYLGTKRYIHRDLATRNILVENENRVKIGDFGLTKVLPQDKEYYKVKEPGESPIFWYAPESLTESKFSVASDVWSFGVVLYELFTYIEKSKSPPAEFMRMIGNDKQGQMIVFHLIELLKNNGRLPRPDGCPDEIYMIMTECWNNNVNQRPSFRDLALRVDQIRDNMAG

Compound `CCN(CC)CC[C@H](CNc1ccnc2cc(Cl)ccc12)c1ccc(O)cc1` [NSC13626] has a Kd (JAK2) of 6.6 µM and a Kd (JAK3) of 4.6 µM.

From article PMC6288363, “A Novel Selective JAK2 Inhibitor Identified Using Pharmacological Interactions” (Frontiers in Pharmacology, 2018)
